# Key:
# [1] = test system: Candida strain ATCC 20962; assay: Bioreactor conversion of ethyl decanoate to sebacic acid (Example 73); format: cell-based; conditions: decane induction
# Experimental: (§1) By conversion tests for ethyl decanoate were performed in 0.5 L Infors HT Multifors bioreactors (Infors AG, Switzerland) with working volumes of 0.4 L each. […] Fermentation medium. […] Bioreactors were equipped with two rushton impellers rotating at 1000 rpm. Bioreactors were inoculated to an OD of approximately 0.2 and growth continued for approximately 12-14 hours, at which point the conversion phase was initiated by evenly space boluses of ethyl decanoate. Culture pH was kept constant at 5.8 during the growth phase by automatic addition of 6 N KOH and temperature and airflow were controlled at 30° C. and 1 vvm respectively.
# (§2) At induction, the pH was changed to 6.2 and maintained by addition of 6N KOH. Bioreactors were induced with an initial 4.0 ml bolus of decane for 6 hours with an airflow rate of 0.25 vvm to minimize evaporation.
# Following this initial 6 hour induction, airflow was increased to 1 vvm and 58 μl of ethyl decanoate was added every 30 minutes for the next 6 hours. Ethyl decanoate boluses were then increased to 116 μl at a frequency of once per hour for the next 36 hours. In addition, a co-feed of dextrose was fed at a rate of 1.25 g/L-h. Final samples were taken 12 hours after the final ethyl decanoate bolus. […]
# strain sAA1082 = assay: as above; format: cell-based, Candida
# Experimental: as §1, §2
# (§3) Following this initial 6 hour induction, airflow was increased to 1 vvm and 58 μl of ethyl decanoate was added every 30 minutes for the next 6 hours. Ethyl decanoate boluses were then increased to 116 μl at a frequency of once per hour for the next 36 hours. In addition, a co-feed of dextrose was fed at a rate of 1.25 g/L-h. Final samples were taken 12 hours after the final ethyl decanoate bolus. Yield calculations were made for all cultures taking only added ethyl decanoate into account due to the volatility of decane and the lack of decanedioic acid formation following the initial induction period.
# strain sAA2178 = assay: as above; format: cell-based, Candida
# Experimental: as §1, §2, §3
# Candida [2] = conditions: stated as background; cited from earlier work
# [3] = test system: Candida tropicalis (ATCC20962); assay: Fermentation procedure for conversion of decane to sebacic acid (Example 3); format: cell-based; conditions: GC at 44 hours after initiating the conversion phase, FIG. 16
# Experimental: Filter sterilized modified SP92-glycerol fermentation medium (6.7 g/L yeast nitrogen base, 3.0 g/L yeast extract, 3.0 g/L (NH4)2SO4, 1.0 g/L K2HPO4, 1.0 g/L KH2PO4, 20 g/L glycerol) is transferred to a sterile fermentation vessel. Growth of Candida tropicalis (ATCC20962) is inoculated to an initial OD600nm of about 1.0 with a 5% inoculum and growth carried out under the following conditions: 30° C. with shaking at about 1000 rpm, 1 volume per volume per minute aeration (vvm), pH 5.8 and initial volume of 0.3 L. Growth proceeds for approximately 8 hours and the conversion phase is initiated by the addition of decane to 2 g/L. Continuous feeds for decane (1 g/L-h) and glucose (1.5 g/L-h) are initiated at the same time as the addition of the decane bolus. Fermentation conditions are maintained at 30° C., 1000 rpm, 1 vvm, and pH 5.8 for 44 hours.
# Samples were collected for GC analysis at 44 hours after initiating the conversion phase. […] Significant evaporative losses from the decane feed bottles prevented an accurate determination of product yield.
# Candida [4] = assay: Toxicity of feedstock or by-product to the yeast (viable cell counts); format: cell-based
# Excerpt: Methyl esters of fatty acids can be converted to the corresponding diacid by beta-oxidation-blocked strains of Candida since Candida produces an esterase that demethylates the fatty acid ester during the omega-oxidation process, allowing conversion of methyl decanoate into the non-toxic diacid, sebacic acid. Unfortunately, having an excess of methyl decanoate in the fermentation broth prior to induction of the enzymes involved in omega-oxidation process results in sufficient demethylation of methyl decanoate to produce toxic levels of decanoic acid, resulting in rapid cell death and a failed fermentation. The standard fermentation procedure would utilize the feedstock (methyl decanoate) as inducer.
# Growth was initiated with an inoculum of pre-culture to an initial OD600nm=1.0 and growth conditions of 35° C., 1000 rpm, 1 vvm, pH 5.8. Growth continued for approximately 10-12 h at which point the conversion phase was induced by the addition of either: 1) a bolus of 10 g/L of decane (Sigma-Aldrich #457116) for 6 h after which a continuous feed of methyl decanoate (TCI America #D0023) at 0.25 g/L-h was initiated or 2) no addition of decane. Induction was performed by initiating a continuous feed of methyl decanoate at 0.25 g/L-h. Because of the volatility of decane, the aeration rate was reduced to 0.3 vvm during the 6-h induction phase with decane as inducer. […]
smiles,measurement,setting,value
CCCCCCCCCC(=O)OCC [Ethyl decanoate],Feedstock Yield (g sebacic acid/g feedstock) ATCC 20962,[1],0.685 g sebacic acid/g feedstock
same,% improvement over ATTC 20962 sAA1082,strain sAA1082,58.9%
same,Feedstock Yield (g sebacic acid/g feedstock) sAA1082,"strain sAA1082; bioreactor, decane induction",1.088 g sebacic acid/g feedstock
same,% improvement over ATTC 20962 sAA2178,strain sAA2178,50.7%
same,Feedstock Yield (g sebacic acid/g feedstock) sAA2178,"strain sAA2178; bioreactor, decane induction",1.032 g sebacic acid/g feedstock
CCCCCCCCCCCC(=O)O [Lauric acid],toxicity to Candida,Candida [2],not as toxic to Candida as is decanoic acid
CCCCCCCCCC [decane],conversion of decane,[3],"converted exclusively to the C10 dicarboxylic acid, sebacic acid"
CCCCCCCCCC(=O)O [decanoic acid],toxicity to Candida (viable cell count data),Candida [4],demonstrates the toxicity
same,toxicity to Candida,Candida [2],high degree of toxicity
CCCCCCCCCC(=O)OC [methyl decanoate],toxicity to Candida,Candida [2],very low toxicity

# Source: patent US20190010524A1, “BIOLOGICAL METHODS FOR PREPARING A FATTY DICARBOXYLIC ACID” (Verdezyne, Inc., priority 2012, published 2019)
